Columns and labels:
foxtail, giant [1] = assay: Test A postemergence; type: in vivo, Setaria faberii
Outline: (§1)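 Pre- and postemergence greenhouse test; loam+sand; cpd in non-phytotox. solvent/surfactant; post at 1–2 leaf, 2–10 cm; visual score ~10 d, 0 = none, 100 = complete control.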

rice = assay: Test B flood; type: in vivo, Oryza sativa; settings: 250 g ai/ha, visual rating on 0 to 100 scale (0 no effect, 100 complete control), 13 to 15 days
Outline: (§2)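 Greenhouse assay lasting 13 to 15 days. Treatment was into water flooding pots 3 cm deep, at the 2-leaf stage, with that level sustained afterwards. Scores compare treated with control plants visually, 100 denoting complete control and 0 no effect; a dash marks no test result.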

ducksalad = assay: Test B flood; type: in vivo, Heteranthera limosa; settings: 250 g ai/ha, visual rating on 0 to 100 scale (0 no effect, 100 complete control), 13 to 15 days
Outline: as §2

nutsedge, yellow = assay: Test C preemergence; type: in vivo, Cyperus esculentus; settings: preemergence; for Plant response rating, Nutsedge, Yellow: 125 g ai/ha, scale 0 to 100, 0 = no effect, 100 = complete control
Outline: (§3)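 Scores of 0 (no effect) to 100 (complete control) were assigned by eye after 13–15 days, comparing treated pots with controls. Soil-applied (preemergence) treatments went onto seeds in loam and sand; foliar (postemergence) treatments onto 1- to 4-leaf plants in peat medium.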

barnyardgrass = assay: Test A postemergence; type: in vivo, Echinochloa crus-galli
Outline: as §1

foxtail, giant [2] = assay: Test A preemergence; type: in vivo, Setaria faberii; settings: preemergence; for Foxtail, Giant plant response rating (0 to 100 scale): 125 g ai/ha, visual injury approx. 10 days after treatment; for Foxtail, Giant plant response rating: 500 g ai/ha, visual injury after approx. 10 days, 0 to 100 scale (0 no effect, 100 complete control)
Outline: as §1

sedge, umbrella = assay: Test B flood; type: in vivo, Cyperus difformis; settings: 250 g ai/ha, visual rating on 0 to 100 scale (0 no effect, 100 complete control), 13 to 15 days
Outline: as §2

morningglory = assay: Test C preemergence; type: in vivo, Ipomoea coccinea; settings: preemergence; for Plant response rating, Morningglory: 125 g ai/ha, scale 0 to 100, 0 = no effect, 100 = complete control
Outline: as §3

wheat [3] = assay: Test A postemergence; type: in vivo, Triticum aestivum; settings: Postemergence
Outline: as §1

pigweed = assay: Test A preemergence; type: in vivo, Amaranthus retroflexus; settings: preemergence; for Pigweed plant response rating (0 to 100 scale): 125 g ai/ha, visual injury approx. 10 days after treatment; for Pigweed plant response rating: 500 g ai/ha, visual injury after approx. 10 days, 0 to 100 scale (0 no effect, 100 complete control)
Outline: as §1

corn = assay: Test A preemergence; type: in vivo, Zea mays; settings: preemergence; for Corn plant response rating (0 to 100 scale): 125 g ai/ha, visual injury approx. 10 days after treatment; for Corn plant response rating: 500 g ai/ha, visual injury after approx. 10 days, 0 to 100 scale (0 no effect, 100 complete control)
Outline: as §1

velvetleaf = assay: Test A preemergence; type: in vivo, Abutilon theophrasti; settings: preemergence; for Velvetleaf plant response rating (0 to 100 scale): 125 g ai/ha, visual injury approx. 10 days after treatment; for Velvetleaf plant response rating: 500 g ai/ha, visual injury after approx. 10 days, 0 to 100 scale (0 no effect, 100 complete control)
Outline: as §1

ragweed = assay: Test C preemergence; type: in vivo, Ambrosia elation; settings: preemergence; for Plant response rating, Ragweed: 125 g ai/ha, scale 0 to 100, 0 = no effect, 100 = complete control
Outline: as §3

crabgrass, large = assay: Test A preemergence; type: in vivo, Digitaria sanguinalis; settings: preemergence; for Crabgrass, Large plant response rating (0 to 100 scale): 125 g ai/ha, visual injury approx. 10 days after treatment; for Crabgrass, Large plant response rating: 500 g ai/ha, visual injury after approx. 10 days, 0 to 100 scale (0 no effect, 100 complete control)
Outline: as §1

wheat [4] = assay: Test A preemergence; type: in vivo, Triticum aestivum; settings: preemergence; for Wheat plant response rating (0 to 100 scale): 125 g ai/ha, visual injury approx. 10 days after treatment; for Wheat plant response rating: 500 g ai/ha, visual injury after approx. 10 days, 0 to 100 scale (0 no effect, 100 complete control)
Outline: as §1

[5] = Postemergence, 500 g ai/ha, 0 to 100 scale (0 no effect, 100 complete control)
[6] = postemergence, 125 g ai/ha, about 10 days, visual rating on 0 to 100 scale (0 no effect, 100 complete control)
[7] = 31 g ai/ha, visual rating, scale 0 to 100 (0 no effect, 100 complete control), 13 to 15 days
[8] = 62 g ai/ha, scale 0 to 100 (0 no effect, 100 complete control), 13 to 15 days
[9] = 250 g ai/ha, scale 0 to 100, 0 is no effect, 100 is complete control
[10] = 125 g ai/ha, 0 to 100 scale, 0 no effect, 100 complete control
[11] = 500 g ai/ha, 0 to 100 scale (0 no effect, 100 complete control)

Row | SMILES | Foxtail, Giant plant response rating (foxtail, giant [1]; [5]) | Foxtail, Giant plant response rating (foxtail, giant [1]; [6]) | Plant response rating, Rice (rice) | Plant response rating, Ducksalad (ducksalad) | Nutsedge, Yellow plant response rating (nutsedge, yellow; [7]) | Nutsedge, Yellow plant response rating (nutsedge, yellow; [8]) | Plant response rating, Nutsedge, Yellow (nutsedge, yellow; 13 to 15 days) | Nutsedge, Yellow plant response rating (nutsedge, yellow; [9]) | Barnyardgrass plant response rating (barnyardgrass; [5]) | Barnyardgrass plant response rating (barnyardgrass; [6]) | Foxtail, Giant plant response rating (0 to 100 scale) (foxtail, giant [2]) | Foxtail, Giant plant response rating (foxtail, giant [2]) | Plant response rating, Sedge, Umbrella (sedge, umbrella) | Morningglory plant response rating (morningglory; [7]) | Morningglory plant response rating (morningglory; [8]) | Plant response rating, Morningglory (morningglory; 13 to 15 days) | Morningglory plant response rating (morningglory; [9]) | Wheat plant response rating (wheat [3]; [10]) | Wheat plant response rating (wheat [3]; [11]) | Pigweed plant response rating (0 to 100 scale) (pigweed) | further results
1 | CCNC(=O)c1cc(CC)n(Cc2ccnc(C(F)(F)F)c2)n1 [Compound 196] | 100 | 90 | 20 | 80 | 15 | 65 | 80 | 90 | 90 | 90 | 100 | 90 | 70 | 98 | 98 | 100 | 100 | 40 | 90 | 100 | Pigweed plant response rating (pigweed): 100; Corn plant response rating (0 to 100 scale) (corn): 10; Corn plant response rating (corn): 90; Velvetleaf plant response rating (0 to 100 scale) (velvetleaf): 80; Velvetleaf plant response rating (velvetleaf): 100; Ragweed plant response rating (ragweed; [7]): 85; Ragweed plant response rating (ragweed; [8]): 90; Plant response rating, Ragweed (ragweed; 13 to 15 days): 98; Ragweed plant response rating (ragweed; [9]): 98; Crabgrass, Large plant response rating (0 to 100 scale) (crabgrass, large): 100; Crabgrass, Large plant response rating (crabgrass, large): 100; Wheat plant response rating (0 to 100 scale) (wheat [4]): 20; Wheat plant response rating (wheat [4]): 100
2 | Cc1cc(C(=O)NC(C)C)nn1Cc1ccnc(C(F)(F)F)c1 [Compound 197] | 90 | 80 | 10 | 95 | 0 | 25 | 75 | 85 | 100 | 80 | 100 | 100 | 85 | 75 | 100 | 100 | 100 | 0 | 60 | 100 | Pigweed plant response rating (pigweed): 100; Corn plant response rating (0 to 100 scale) (corn): 0; Corn plant response rating (corn): 90; Velvetleaf plant response rating (0 to 100 scale) (velvetleaf): 70; Velvetleaf plant response rating (velvetleaf): 100; Ragweed plant response rating (ragweed; [7]): 60; Ragweed plant response rating (ragweed; [8]): 85; Plant response rating, Ragweed (ragweed; 13 to 15 days): 95; Ragweed plant response rating (ragweed; [9]): 98; Crabgrass, Large plant response rating (0 to 100 scale) (crabgrass, large): 100; Crabgrass, Large plant response rating (crabgrass, large): 100; Wheat plant response rating (0 to 100 scale) (wheat [4]): 0; Wheat plant response rating (wheat [4]): 50
3 | CCCNC(=O)c1cc(CCC)n(Cc2cc(C(F)(F)F)nn2C)n1 [Compound 198] | 100 | 90 | 60 | 100 | 5 | 15 | 30 | 65 | 100 | 90 | 100 | 90 | 100 | 95 | 100 | 100 | 100 | 60 | 90 | 100 | Pigweed plant response rating (pigweed): 100; Corn plant response rating (0 to 100 scale) (corn): 0; Corn plant response rating (corn): 90; Velvetleaf plant response rating (0 to 100 scale) (velvetleaf): 30; Velvetleaf plant response rating (velvetleaf): 100; Ragweed plant response rating (ragweed; [7]): 60; Ragweed plant response rating (ragweed; [8]): 85; Plant response rating, Ragweed (ragweed; 13 to 15 days): 98; Ragweed plant response rating (ragweed; [9]): 100; Crabgrass, Large plant response rating (0 to 100 scale) (crabgrass, large): 100; Crabgrass, Large plant response rating (crabgrass, large): 100; Wheat plant response rating (0 to 100 scale) (wheat [4]): 60; Wheat plant response rating (wheat [4]): 100
4 | CCc1cc(C(=O)NCC2CC2)nn1Cc1ccnc(C(F)(F)F)c1 [Compound 199] | 90 | 90 | 45 | 90 | 30 | 45 | 80 | 85 | 90 | 70 | 100 | 100 | 90 | 60 | 100 | 98 | 100 | 70 | 80 | 100 | Pigweed plant response rating (pigweed): 100; Corn plant response rating (0 to 100 scale) (corn): 70; Corn plant response rating (corn): 90; Velvetleaf plant response rating (0 to 100 scale) (velvetleaf): 100; Velvetleaf plant response rating (velvetleaf): 100; Ragweed plant response rating (ragweed; [7]): 30; Ragweed plant response rating (ragweed; [8]): 85; Plant response rating, Ragweed (ragweed; 13 to 15 days): 95; Ragweed plant response rating (ragweed; [9]): 95; Crabgrass, Large plant response rating (0 to 100 scale) (crabgrass, large): 100; Crabgrass, Large plant response rating (crabgrass, large): 100; Wheat plant response rating (0 to 100 scale) (wheat [4]): 90; Wheat plant response rating (wheat [4]): 100
5 | CCc1cc(C(=O)NC2CC2)nn1Cc1ccnc(OCC(F)(F)F)c1 [Compound 200] | 100 | 100 | 0 | 80 | 20 | 25 | 40 | 60 | 100 | 90 | 100 | 100 | 90 | 55 | 95 | 98 | 100 | 40 | 100 | 100 | Pigweed plant response rating (pigweed): 100; Corn plant response rating (0 to 100 scale) (corn): 60; Corn plant response rating (corn): 90; Velvetleaf plant response rating (0 to 100 scale) (velvetleaf): 20; Velvetleaf plant response rating (velvetleaf): 100; Ragweed plant response rating (ragweed; [7]): 5; Ragweed plant response rating (ragweed; [8]): 35; Plant response rating, Ragweed (ragweed; 13 to 15 days): 70; Ragweed plant response rating (ragweed; [9]): 85; Crabgrass, Large plant response rating (0 to 100 scale) (crabgrass, large): 100; Crabgrass, Large plant response rating (crabgrass, large): 100; Wheat plant response rating (0 to 100 scale) (wheat [4]): 0; Wheat plant response rating (wheat [4]): 100

— patent publication US20150105252A1, “SUBSTITUTED PYRAZOLES AS HERBICIDES” (E I DU PONT DE NEMOURS AND COMPANY, priority 2013, published 2015)
